Reference: ChEMBL document CHEMBL1687815, “In vivo selection of a missense mutation in adeR and conversion of the novel blaOXA-164 gene into blaOXA-58 in carbapenem-resistant Acinetobacter baumannii isolates from a hospitalized patient” (2010)
Converted amounts (≈) assume the structure as drawn. The source made the active and inactive calls. The calls are words filed in the database; no cut-off is given here.

Key:
Acinetobacter baumannii [1] = experiment: Antimicrobial activity against Acinetobacter baumannii isolate K expressing beta-lactamase OXA-58 isolated from blood culture of patient by Etest
Acinetobacter baumannii [2] = experiment: Antimicrobial activity against Acinetobacter baumannii isolate M expressing beta-lactamase OXA-58 isolated from tracheal secretion of patient by Etest
Acinetobacter baumannii [3] = experiment: Antimicrobial activity against Acinetobacter baumannii isolate I expressing beta-lactamase OXA-58 isolated from tracheal secretion of patient by Etest
Acinetobacter baumannii [4] = experiment: Antimicrobial activity against Acinetobacter baumannii isolate D expressing beta-lactamase OXA-164 isolated from tracheal secretion of patient by Etest
Acinetobacter baumannii [5] = experiment: Antimicrobial activity against Acinetobacter baumannii isolate E expressing beta-lactamase OXA-164 isolated from tracheal secretion of patient by Etest
Acinetobacter baumannii [6] = experiment: Antimicrobial activity against Acinetobacter baumannii isolate F expressing beta-lactamase OXA-164 isolated from tracheostoma of patient by Etest
Acinetobacter baumannii [7] = experiment: Antimicrobial activity against Acinetobacter baumannii isolate H expressing beta-lactamase OXA-58 isolated from tracheal secretion of patient by Etest
Acinetobacter baumannii [8] = experiment: Antimicrobial activity against Acinetobacter baumannii isolate B expressing beta-lactamase OXA-164 isolated from tracheal secretion of patient by Etest
Acinetobacter baumannii [9] = experiment: Antimicrobial activity against Acinetobacter baumannii isolate C expressing beta-lactamase OXA-164 isolated from tracheal secretion of patient by Etest
Acinetobacter baumannii [10] = experiment: Antimicrobial activity against Acinetobacter baumannii isolate L expressing beta-lactamase OXA-58 isolated from tracheal secretion of patient by Etest
Acinetobacter baumannii [11] = experiment: Antimicrobial activity against Acinetobacter baumannii isolate J expressing beta-lactamase OXA-58 isolated from bedsore by Etest
Acinetobacter baumannii [12] = experiment: Antimicrobial activity against Acinetobacter baumannii isolate G expressing beta-lactamase OXA-58 isolated from tracheal secretion of patient by Etest
Acinetobacter baumannii [13] = experiment: Antimicrobial activity against Acinetobacter baumannii isolate A expressing beta-lactamase OXA-164 isolated from tracheal secretion of patient by Etest
Acinetobacter baumannii [14] = experiment: Antimicrobial activity against Acinetobacter baumannii isolate G expressing beta-lactamase OXA-58 isolated from tracheal secretion of patient by vitek 2 system
Acinetobacter baumannii [15] = experiment: Antimicrobial activity against Acinetobacter baumannii isolate M expressing beta-lactamase OXA-58 isolated from tracheal secretion of patient by vitek 2 system
Acinetobacter baumannii [16] = experiment: Antimicrobial activity against Acinetobacter baumannii isolate D expressing beta-lactamase OXA-164 isolated from tracheal secretion of patient by vitek 2 system
Acinetobacter baumannii [17] = experiment: Antimicrobial activity against Acinetobacter baumannii isolate H expressing beta-lactamase OXA-58 isolated from tracheal secretion of patient by vitek 2 system
Acinetobacter baumannii [18] = experiment: Antimicrobial activity against Acinetobacter baumannii isolate I expressing beta-lactamase OXA-58 isolated from tracheal secretion of patient by vitek 2 system
Acinetobacter baumannii [19] = experiment: Antimicrobial activity against Acinetobacter baumannii isolate K expressing beta-lactamase OXA-58 isolated from blood culture of patient by vitek 2 system
Acinetobacter baumannii [20] = experiment: Antimicrobial activity against Acinetobacter baumannii isolate C expressing beta-lactamase OXA-164 isolated from tracheal secretion of patient by vitek 2 system
Acinetobacter baumannii [21] = experiment: Antimicrobial activity against Acinetobacter baumannii isolate L expressing beta-lactamase OXA-58 isolated from tracheal secretion of patient by vitek 2 system
Acinetobacter baumannii [22] = experiment: Antimicrobial activity against Acinetobacter baumannii isolate J expressing beta-lactamase OXA-58 isolated from bedsore by vitek 2 system
Acinetobacter baumannii [23] = experiment: Antimicrobial activity against Acinetobacter baumannii isolate A expressing beta-lactamase OXA-164 isolated from tracheal secretion of patient by vitek 2 system
Acinetobacter baumannii [24] = experiment: Antimicrobial activity against Acinetobacter baumannii isolate E expressing beta-lactamase OXA-164 isolated from tracheal secretion of patient by vitek 2 system
Acinetobacter baumannii [25] = experiment: Antimicrobial activity against Acinetobacter baumannii isolate F expressing beta-lactamase OXA-164 isolated from tracheostoma of patient by vitek 2 system
Acinetobacter baumannii [26] = experiment: Antimicrobial activity against Acinetobacter baumannii isolate B expressing beta-lactamase OXA-164 isolated from tracheal secretion of patient by vitek 2 system

| Compound | MIC (Acinetobacter baumannii [1]) | MIC (Acinetobacter baumannii [2]) | MIC (Acinetobacter baumannii [3]) | MIC (Acinetobacter baumannii [4]) | MIC (Acinetobacter baumannii [5]) | MIC (Acinetobacter baumannii [6]) | MIC (Acinetobacter baumannii [7]) | MIC (Acinetobacter baumannii [14]) | MIC (Acinetobacter baumannii [15]) | MIC (Acinetobacter baumannii [16]) | MIC (Acinetobacter baumannii [17]) | MIC (Acinetobacter baumannii [18]) | MIC (Acinetobacter baumannii [19]) | MIC (Acinetobacter baumannii [20]) | MIC (Acinetobacter baumannii [21]) | MIC (Acinetobacter baumannii [22]) | MIC (Acinetobacter baumannii [23]) | MIC (Acinetobacter baumannii [24]) | MIC (Acinetobacter baumannii [25]) | MIC (Acinetobacter baumannii [26]) | also measured |
| --- | --- | --- | --- | --- | --- | --- | --- | --- | --- | --- | --- | --- | --- | --- | --- | --- | --- | --- | --- | --- | --- |
| C[C@H]1COc2c(N3CCN(C)CC3)c(F)cc3c(=O)c(C(=O)O)cn1c23.C[C@H]1COc2c(N3CCN(C)CC3)c(F)cc3c(=O)c(C(=O)O)cn1c23.O [LEVOFLOXACIN] | ≥ 64 µg/mL | ≥ 64 µg/mL | ≥ 64 µg/mL | 8 µg/mL | 16 µg/mL | 8 µg/mL | ≥ 64 µg/mL | – | – | – | – | – | – | – | – | – | – | – | – | – | MIC (Acinetobacter baumannii [8]): 8 µg/mL; MIC (Acinetobacter baumannii [9]): 8 µg/mL; MIC (Acinetobacter baumannii [10]): ≥ 64 µg/mL; MIC (Acinetobacter baumannii [11]): ≥ 64 µg/mL; MIC (Acinetobacter baumannii [12]): ≥ 64 µg/mL; MIC (Acinetobacter baumannii [13]): 8 µg/mL |
| NC[C@H]1O[C@H](O[C@H]2[C@H](O)[C@@H](O[C@H]3O[C@H](CO)[C@@H](O)[C@H](N)[C@H]3O)[C@H](N)C[C@@H]2N)[C@H](N)C[C@@H]1O [TOBRAMYCIN] | 16 µg/mL (≈ 34.2 µM) | 4 µg/mL (≈ 8.56 µM) | 4 µg/mL (≈ 8.56 µM) | 2 µg/mL (≈ 4.28 µM) | 2 µg/mL (≈ 4.28 µM) | 2 µg/mL (≈ 4.28 µM) | 4 µg/mL (≈ 8.56 µM) | ≤ 1 µg/mL | ≤ 1 µg/mL | ≤ 1 µg/mL | ≤ 1 µg/mL | ≤ 1 µg/mL | 8 µg/mL (≈ 17.1 µM) | ≤ 1 µg/mL | ≤ 1 µg/mL | 8 µg/mL (≈ 17.1 µM) | ≤ 1 µg/mL | ≤ 1 µg/mL | ≤ 1 µg/mL | ≤ 1 µg/mL | MIC (Acinetobacter baumannii [8]): 4 µg/mL (≈ 8.56 µM); MIC (Acinetobacter baumannii [9]): 2 µg/mL (≈ 4.28 µM); MIC (Acinetobacter baumannii [10]): 4 µg/mL (≈ 8.56 µM); MIC (Acinetobacter baumannii [11]): 16 µg/mL (≈ 34.2 µM); MIC (Acinetobacter baumannii [12]): 4 µg/mL (≈ 8.56 µM); MIC (Acinetobacter baumannii [13]): 2 µg/mL (≈ 4.28 µM) |
| CN(C)c1cc(NC(=O)CNC(C)(C)C)c(O)c2c1C[C@H]1C[C@H]3[C@H](N(C)C)C(O)=C(C(N)=O)C(=O)[C@@]3(O)C(O)=C1C2=O [TIGECYCLINE] | 16 µg/mL (≈ 27.3 µM) | 16 µg/mL (≈ 27.3 µM) | 16 µg/mL (≈ 27.3 µM) | 4 µg/mL (≈ 6.83 µM) | 4 µg/mL (≈ 6.83 µM) | 4 µg/mL (≈ 6.83 µM) | 16 µg/mL (≈ 27.3 µM) | ≥ 8 µg/mL | ≥ 8 µg/mL | 2 µg/mL (≈ 3.41 µM) | ≥ 8 µg/mL | ≥ 8 µg/mL | ≥ 8 µg/mL | 2 µg/mL (≈ 3.41 µM) | ≥ 8 µg/mL | ≥ 8 µg/mL | 2 µg/mL (≈ 3.41 µM) | 2 µg/mL (≈ 3.41 µM) | 2 µg/mL (≈ 3.41 µM) | 2 µg/mL (≈ 3.41 µM) | MIC (Acinetobacter baumannii [8]): 4 µg/mL (≈ 6.83 µM); MIC (Acinetobacter baumannii [9]): 4 µg/mL (≈ 6.83 µM); MIC (Acinetobacter baumannii [10]): 16 µg/mL (≈ 27.3 µM); MIC (Acinetobacter baumannii [11]): 16 µg/mL (≈ 27.3 µM); MIC (Acinetobacter baumannii [12]): 16 µg/mL (≈ 27.3 µM); MIC (Acinetobacter baumannii [13]): 4 µg/mL (≈ 6.83 µM) |
| COc1c(N2C[C@@H]3CCCN[C@@H]3C2)c(F)cc2c(=O)c(C(=O)O)cn(C3CC3)c12 | – | – | – | – | – | – | – | inactive | inactive | inactive | inactive | inactive | inactive | inactive | inactive | inactive | inactive | inactive | inactive | inactive | – |
| GENTAMICIN | – | – | – | – | – | – | – | inactive | inactive | inactive | inactive | inactive | inactive | inactive | inactive | inactive | inactive | inactive | inactive | inactive | – |
